Test results published in US6855348B2, “Insecticidal composition derived from plants” (priority 2000, dated 2005).
Where two headings read alike, the source gives them in different places.

Assays:
[1] = tested on: Dermatophagoides farinae
Procedure: (§1) American house dust mite (Dermatophagoides farinae) and European house dust mite (Dermatophagoide pteronyssinus) were maintained at 75±5% RH (relative humidity) at 25±1° C., and were provided a feed mixture of fish meal and multi-vitamins in a ratio of 1 to 1 on a 12.5×10.5×5 cm container.
(§2) The starting concentration is important for the primary screening of bioactive compounds from plant extracts and oils. […] 1 mg of the methanol extracts or oils were suspended with 40 μl of methanol and were transferred to a colorless microtube (2 ml). The microtube was vertically shaken several times to disperse the contents to the wall and cap of the microtube and it was placed in a freeze dryer for 1 hour in order to volatilize the solvent. Twenty-five mites were placed on the prepared microtube, and all treatment groups were transferred to an incubator kept at […]. Active mites only were selected with a fine brush under a microscope. Mortalities were determined with a microscope at 24 hours and 48 hours after treatment. […] All tests were replicated four or more times. The percentage mortality was determined and transformed to arcsine square-root values for analysis of variance (ANOVA). Treatment means were compared and separated by Scheffe's test at the P=0.05 (SAS Institute, 1996). Means (±standard error) of untransformed data are reported. Controls received 40 μl of methanol.

[2] = tested on: Dermatophagoides pteronyssinus
Procedure: as §1, §2

[3] = tested on: house dust mites; type: in vivo
Procedure: All tests were replicated four or more times. […] Means (±standard error) of untransformed data are reported. Controls received 40 μl of methanol.

[4] = tested on: mites inhabiting carpets and chairs; settings: homes, cited from earlier work
[5] = 0.5 mg/tube, 48 hr, listed as Butyl isothiocyanate

CCCCN=C=S [butyl isothiocyanate]
Mortality (Means ± standard error, %) ([1]; 0.125 mg/tube, 24 hr): 1.0 ± 1.0 d % | Mortality (Means ± standard error, %) ([1]; 0.125 mg/tube, 48 hr): 2.0% | Mortality (Means ± standard error, %) ([1]; 0.2 mg/tube, 24 hr): 1.0 ± 1.0 e % | Mortality (Means ± standard error, %) ([1]; 0.2 mg/tube, 48 hr): 3.0% | Mortality (Means ± standard error, %) ([1]; 0.25 mg/tube, 24 hr): 20.0 ± 1.6 c % | Mortality (Means ± standard error, %) ([1]; 0.25 mg/tube, 48 hr): 27.0% | Mortality (Means ± standard error, %) ([1]; 0.3 mg/tube, 24 hr): 26.0 ± 2.0 c % | Mortality (Means ± standard error, %) ([1]; 0.3 mg/tube, 48 hr): 34.0% | Mortality (Means ± standard error, %) ([1]; 0.4 mg/tube, 24 hr): 44.0 ± 2.8 b % | Mortality (Means ± standard error, %) ([1]; 0.4 mg/tube, 48 hr): 48.0% | Mortality (Means ± standard error, %) ([1]; 0.5 mg/tube, 24 hr): 84.0 ± 5.2 a % | Mortality (Means ± standard error, %) ([1]; 0.5 mg/tube, 48 hr): 94.0% | Mortality (Means ± standard error, %) [1, 5]: 97% | Mortality (Means ± standard error, %) ([1]; 1 mg/tube, 24 hr): 99.0 ± 1.0 a % | Mortality (Means ± standard error, %) ([1]; 1 mg/tube, 48 hr): 100 a % | Mortality (Means ± standard error, %) ([2]; 0.125 mg/tube, 24 hr): 1.0 ± 1.0 d % | Mortality (Means ± standard error, %) ([2]; 0.125 mg/tube, 48 hr): 2.0 ± 1.2 d % | Mortality (Means ± standard error, %) ([2]; 0.2 mg/tube, 24 hr): 7.0 ± 1.0 cd % | Mortality (Means ± standard error, %) ([2]; 0.2 mg/tube, 48 hr): 7.0 ± 1.0 cd % | Mortality (Means ± standard error, %) ([2]; 0.25 mg/tube, 24 hr): 21.0 ± 2.5 cd % | Mortality (Means ± standard error, %) ([2]; 0.25 mg/tube, 48 hr): 30.0 ± 8.7 bc % | Mortality (Means ± standard error, %) ([2]; 0.3 mg/tube, 24 hr): 32.0 ± 1.6 bc % | Mortality (Means ± standard error, %) ([2]; 0.3 mg/tube, 48 hr): 39.0 ± 2.5 bc % | Mortality (Means ± standard error, %) ([2]; 0.4 mg/tube, 24 hr): 39.0 ± 2.5 b % | Mortality (Means ± standard error, %) ([2]; 0.4 mg/tube, 48 hr): 45.0 ± 2.5 b % | Mortality (Means ± standard error, %) ([2]; 0.5 mg/tube, 24 hr): 92.0 ± 2.6 a % | Mortality (Means ± standard error, %) ([2]; 0.5 mg/tube, 48 hr): 96.0 ± 2.3 a % | Mortality (Means ± standard error, %) [2, 5]: 94% | Mortality (Means ± standard error, %) ([2]; 1 mg/tube, 24 hr): 99.0 a^c % | Mortality (Means ± standard error, %) ([2]; 1 mg/tube, 48 hr): 100 a % | acaricidal activity / mortality against two species of house dust mites ([3]; 1 mg/tube, 48 hours after treatment): 100% | acaricidal activity ([3]; at 0.4 mg and less): no significant acaricidal activity

CCN(CC)c1nc(C)cc(OP(=S)(OC)OC)n1 [pirimiphos-methyl]
control of mites inhabiting carpets ([4]; carpets): 60% | control of mites inhabiting chairs ([4]; chairs): 50%
